The values below come from ChEMBL document CHEMBL5260839 (J Med Chem, 2019).

Data set [1] relates to RS4-11. In words: cells. The following applies: Homo sapiens, RS4-11, 96 h.
Data set [2] concerns the target T1, E3 ubiquitin-protein ligase Mdm2 (Homo sapiens, UniProt Q00987). Nature of the data set: Binding affinity to recombinant human MDM2 (1 to 118 residues) assessed as inhibition constant using FAM-tagged p-53 based peptide as substrate by fluorescence polarization based assay.
Target sequence in this assay (Q00987 whole entry, the tested form may be a part): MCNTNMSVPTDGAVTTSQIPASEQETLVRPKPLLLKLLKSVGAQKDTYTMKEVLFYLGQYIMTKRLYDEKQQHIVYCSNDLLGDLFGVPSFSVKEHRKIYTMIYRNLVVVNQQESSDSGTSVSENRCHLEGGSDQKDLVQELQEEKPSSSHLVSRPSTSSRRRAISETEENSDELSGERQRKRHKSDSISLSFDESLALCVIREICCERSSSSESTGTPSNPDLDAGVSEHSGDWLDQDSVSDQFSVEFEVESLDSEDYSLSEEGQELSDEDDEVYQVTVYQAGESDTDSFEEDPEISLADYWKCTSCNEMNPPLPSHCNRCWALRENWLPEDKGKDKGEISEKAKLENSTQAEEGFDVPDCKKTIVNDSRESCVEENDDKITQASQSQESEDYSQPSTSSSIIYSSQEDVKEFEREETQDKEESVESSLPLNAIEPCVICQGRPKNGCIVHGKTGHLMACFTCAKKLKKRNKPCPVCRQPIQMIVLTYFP
For data set [3], the target named is T1, E3 ubiquitin-protein ligase Mdm2. In words: Inhibition of MDM2 in human RS4-11 cells harbouring wildtype p53 assessed as fold change in p53 accumulation at 1 uM incubated for 4 hrs by Western blot analysis (reference value: 1). It is filed as cell-based.
Target sequence in this assay (Q00987 whole entry, looked up, the tested form may be a part): as the sequence (Q00987 whole entry, the tested form may be a part) above
Data set [4] has the same target. Nature of the data set: Inhibition of MDM2 in human RS4-11 cells harbouring wildtype p53 assessed as fold change in MDM2 level at 1 uM incubate for 4 hrs by Western blot analysis (reference value: […]). It counts as cell-based. A general note: A western blot detects proteins with antibodies after separation by electrophoresis.
Target sequence in this assay (Q00987 whole entry, looked up, the tested form may be a part): as the sequence (Q00987 whole entry, the tested form may be a part) above
For the next data set, the system named is MV4-11. In words: Inhibition of cell growth in human MV4-11 cells incubated for 4 days in the presence of lenalidomide by Lactate dehydrogenase based WST-8 assay. It counts as functional. The following applies: time 4.0 day. (In general: Tetrazolium assays rely on reduction of a dye to a coloured formazan, in cell work by metabolically active cells.)
The test system of data set [5] is RS4-11. Nature of the data set: Inhibition of cell growth in human RS4-11 cells incubated for 4 days in the presence of lenalidomide by Lactate dehydrogenase based WST-8 assay. It counts as functional. The conditions noted are these: time 4.0 day.
Data set [6] concerns RS4-11. Nature of the data set: Induction of apoptosis in human RS4-11 cells incubated for 24 hrs by Annexin-V/PI staining based flow cytometric analysis. It counts as functional, cell-based. In general terms: In flow cytometry, cells or beads pass a laser one at a time.
For another data set, the system named is MOLM-13. Nature of the data set: cells. The following applies: Homo sapiens, MOLM-13, 96 h.
The subject of the next data set is KG-1. In words: cells. The following applies: Homo sapiens, KG-1, 96 h.
A short description of data set [7]: Toxicity in mouse xenografted with human RS4-11 cells assessed as weight loss at 100 mg/kg, po administered once daily for 5 days. It is filed as organism-based. The conditions noted are these: in vivo, 120 h, time 5 day.
A further data set deals with SIG-M5. In words: cells. The conditions noted are these: Homo sapiens, SIG-M5, 96 h.
Data set [8] is described as follows: Toxicity in mouse xenografted with human RS4-11 cells assessed as signs of toxicity at 100 mg/kg, po administered once daily for 5 days. It counts as organism-based. The following applies: in vivo, 120 h, time 5 day.
In data set [9] the test system is RS4-11. Nature of the data set: Antitumor activity against human RS4-11 cells xenografted in mouse assessed as reduction in tumor growth at 100 mg/kg, po administered daily for 5 days starting from day 26. It counts as functional, organism-based. The conditions noted are these: time 5.0 day.
The test system of another data set is MONO-MAC-6. Nature of the data set: cells. The conditions noted are these: Homo sapiens, MONO-MAC-6, 96 h.

The source made the active and inactive calls. The calls are words filed in the database; no cut-off is given here.

In general, IC50 refers to the concentration at which inhibition is half-maximal. Lower therefore signals greater potency in that assay. One may read the Ki as a measure of affinity in units of concentration, obtained from inhibition or displacement. `CNC(=O)c1ccc(NC(=O)[C@@H]2NC3(CCCCC3)[C@@]3(C(=O)Nc4cc(Cl)ccc43)[C@H]2c2cccc(Cl)c2F)cc1`: the IC50 in the data set with RS4-11 [1] turned out to be 0.089 µM. Moreover, the inhibition constant Ki in [2] was 0.0027 µM.

In the case of `CC(C)C[C@H](NC(=O)[C@H](CCc1ccccc1)NC(=O)CN1CCOCC1)C(=O)N[C@@H](Cc1ccccc1)C(=O)N[C@@H](CC(C)C)C(=O)[C@@]1(C)CO1`, the figures for the fold change (FC) in data set [3] and in data set [4] were 8.5 and 3.6, respectively.

Turning to `O=C(O)c1ccc(NC(=O)[C@@H]2NC3(CCCCC3)[C@@]3(C(=O)Nc4cc(Cl)ccc43)[C@H]2c2cccc(Cl)c2F)cc1`, the inhibition entry in the data set with MV4-11 and with RS4-11 [5] was “Active” in each case. For the same compound, the Activity entry with RS4-11 [6] is “Dose-Dependent Effect”; in [7], “Non-Toxic”; in data set [8] it was “Non-Toxic”. Besides, the IC50 in the data set with MOLM-13 is 0.0768 µM; in the data set with KG-1, > 10 µM; with SIG-M5 it was 0.106 µM; with MONO-MAC-6, > 10 µM. The result in the data set with RS4-11 [9] was Active.

`O=C1CCC(N2C(=O)c3cccc(NCCCCCCNC(=O)c4ccc(NC(=O)[C@@H]5NC6(CCCCC6)[C@@]6(C(=O)Nc7cc(Cl)ccc76)[C@H]5c5cccc(Cl)c5F)cc4)c3C2=O)C(=O)N1` (stereo partly specified) had an IC50 in the data set on RS4-11 [1] of 0.022 µM.

In the data set on RS4-11 [1], `O=C1CCC(N2Cc3cccc(NCCCCNC(=O)c4ccc(NC(=O)[C@@H]5NC6(CCCCC6)[C@@]6(C(=O)Nc7cc(Cl)ccc76)[C@H]5c5cccc(Cl)c5F)cc4)c3C2=O)C(=O)N1` (stereo partly specified) had an IC50 of 0.005 µM.
